Marks after values point to notes of the source that are not given here.
What was measured:
[1] = test system: human H460 NSCLC cells; assay: In vitro chemosensitization of standard chemotherapeutic agents; type: cell-based
[2] = test system: PARP; assay: Tumor PARP catalytic activity, 32P-NAD incorporation in SW620 tumor homogenates of treated animals; type: in vivo, mice; details: temozolomide alone, oral gavage
Experimental: Tumours were excised and were snap frozen in liquid nitrogen and stored at −80° C. until homogenised for analysis. The specimen was defrosted on ice and the wet weight documented. The tissue was homogenised using a Pro 2000 instrument (Pro Scientific Inc, Monroe, Conn., USA) in 3 volumes (i.e. 1 mg plus 3 μl isotonic buffer −7 mM Hepes, 26 mM KCl, 0.1 mM dextran, 0.4 mM EGTA, 0.5 mM MgCl2, 45 mM sucrose, pH 7.8), giving a homogenate with an overall dilution of 1 in 4. The homogenate was kept on ice throughout the process, and homogenisation was performed in 10 second bursts to prevent undue warming of the sample. Prior to assay the samples were further diluted with isotonic buffer where necessary to give a final dilution of 1 in 40 for [^32P]NAD incorporation assay or 1 in 1000 for immunoblot aaasy.
Briefly, cells were suspended in hypotonic buffer (9 mM HEPES pH 7.8, 4.5% (v/v) dextran, 4.5 mM MgCl2 and 5 mM DTT) at 1.5×10^7/ml on ice for 30 minutes then 9 vol of isotonic buffer (40 mM HEPES pH 7.8, 130 mM KCl, 4% (v/v) dextran, 2 mM EGTA, 2.3 mM MgCl2, 225 mM sucrose and 2.5 mM DTT) was added. The reaction was started by adding 300 μl cells to 100 μl 300 μM NAD^+ containing [^32P]-NAD^+ (Amersham, UK), and terminated by the addition of 2 ml ice cold 10% (w/v) TCA+10% (w/v) sodium pyrophosphate. After 30 min on ice the precipitated ^32P—labelled ADP-ribose polymers were filtered on Whatman GC/C filters (Whatman Intemational Ltd, Kent, UK), washed 5 times with 1% (v/v) TCA/1% (v/v) sodium pyrophosphate, dried and counted. PARP inhibitory IC50 values were calculated from computer-fitted curves (GraphPad Software, Inc., San Diego, Calif.).
Tumour homogenates were assayed in a similar manner; however, the homogenisation process introduces sufficient DNA damage to maximally stimulate PARP activity and oligonucleotide was not therefore required. Results were expressed in terms of pmol PAR former per mg tumour.
Preparation of Tumour/Tissue Samples • 1. The frozen tumour samples are weighed. • 2. 3 volumes (i.e. 3 μl solution added for each 1 mg tissue) of isotonic buffer plus DTT is added to the tumour sample. This is stored on ice until and during homogenisation. • 3. The sample is homogenised on ice within a Class II cabinet for 10-second bursts until no detectable macroscopic pieces of tissue are visible. • 4. Sufficient volume of the homogenate is diluted 1 in 10 with isotonic buffer plus DTT to provide an overall dilution of 1 in 40 from the original sample. A final volume of 3 ml is sufficient for triplicate sampling and a subsequent protein assay. • 5. The diluted homogenate is stored on ice and assayed within one hour as below.
PARP Assay of Tumour/Tissue Samples • 1. ^32P 600 μM NAD solution is prepared fresh on the day of experiment as detailed above. Oligonucleotide stock is removed from storage and defrosted. • 2. Water bath is warmed to 26° C. and set to agitate at 70 oscillations per minute.
3. Reaction test tubes are set up as per table A for the QC samples and as per table B for the homogenate.
• 4. Each QC sample is assayed in triplicate, with T0, +oligo and −oligo samples ×3. (Total of 9 tubes per sample, if low cell counts −oligo samples are omitted.) Homogenates are also assayed in triplicate, with T0 and reaction samples ×3. (Total 6 tubes per sample). • 5. 2 ml ice cold 10% TCA+10% NaPPi is added to the T0 tubes prior to addition of homogenate or cells, to correct for non-specific binding of radio-label to the filter. • 6. Reaction test tubes homogenates and QC cells are warmed in the water bath to 26° C. for 7 minutes. • 7. Each preparation is vortexed briefly and the reaction is started by adding 300 μl of this to each reaction tube. • 8. The reaction is stopped exactly 6 minutes after addition of homogenate by adding 2 ml of ice cold 10% TCA+10% NaPPi and vortexing. • 9. The tube is then incubated on ice for at least one hour prior to filtration. • 10. […]

[3] = test system: SW620 xenograft; assay: In vivo antitumor efficacy with irinotecan, SW620 xenograft; parameters: species or system mice
Source text: In no combination study was antagonism observed.

[4] = GI50 single agent/GI50 agent +0.4 μM compound of formula 1 as glucuronate salt
[5] = GI50 single agent/GI50 agent +0.4 μM Compound I (phosphate salt) instead of glucuronate salt

SMILES	PF50 (H460) [1, 4]	other results
O=c1[nH]cc(F)c(=O)[nH]1 [5-Fluorouracil]	0.92	–
Nc1nc2nc[nH]c2c(=S)[nH]1 [6-thioguanine]	1.1	–
N.N.[Cl][Pt][Cl] [Cisplatin]	1.2	–
COc1cccc2c1C(=O)c1c(O)c3c(c(O)c1C2=O)C[C@@](O)(C(=O)CO)C[C@@H]3O[C@H]1C[C@H](N)[C@H](O)[C@H](C)O1 [Doxorubicin]	1.1	–
COc1cc([C@@H]2c3cc4c(cc3[C@@H](O[C@@H]3O[C@@H]5CO[C@@H](C)O[C@H]5[C@H](O)[C@H]3O)[C@H]3COC(=O)[C@H]23)OCO4)cc(OC)c1O [Etoposide]	–	PF50 (H460) [1, 5]: 0.75^b
Nc1ccn([C@@H]2O[C@H](CO)[C@@H](O)C2(F)F)c(=O)n1 [Gemcitabine]	1.2	–
O=C1[O][Pt]2([NH][C@@H]3CCCC[C@H]3[NH]2)[O]C1=O [Oxaliplatin]	–	PF50 (H460) [1, 5]: 0.98^b
CC(=O)O[C@H]1C(=O)[C@@]2(C)[C@H]([C@H](OC(=O)c3ccccc3)[C@]3(O)C[C@H](OC(=O)[C@H](O)[C@@H](NC(=O)c4ccccc4)c4ccccc4)C(C)=C1C3(C)C)[C@]1(OC(C)=O)CO[C@@H]1C[C@@H]2O [Paclitaxel]	0.77	–
CCc1c2c(nc3ccc(O)cc13)-c1cc3c(c(=O)n1C2)COC(=O)[C@]3(O)CC [SN-38]	2.2	–
Cn1nnc2c(C(N)=O)ncn2c1=O [Temozolomide, reference compound]	–	PARP Activity (%) [2]: 100%; PF50 (H460) [1, 5]: 3.7^b
CC[C@@]1(O)C(=O)OCc2c1cc1n(c2=O)Cc2cc3c(CN(C)C)c(O)ccc3nc2-1 [Topotecan]	1.6	–
CCc1c2c(nc3ccc(OC(=O)N4CCC(N5CCCCC5)CC4)cc13)-c1cc3c(c(=O)n1C2)COC(=O)[C@]3(O)CC [irinotecan, reference compound]	–	inhibition of SW620 tumor growth as single agent ([3]; irinotecan 25 mg/kg, QW×3 IP): did not significantly inhibit SW620 tumor growth; toxicity ([3]; irinotecan single agent groups): No significant toxicity
